From patent US9487506B2, “Mineralocorticoid receptor antagonists” (Merck Sharp & Dohme Corp., priority 2011, dated 2016)

target: T1, full-length human Mineralocorticoid Receptor (MR) (Homo sapiens, UniProt P08235); test: human MR NH Pro assay (PathHunter Protein:Protein interaction assay), MR antagonist activity; assay type: cell-based; settings: PathHunter CHO-K1 cells overexpressing human MR; aldosterone 0.3 nM to about 1 nM; 6 hours at 37° C.; luminescence; read-out: IP (rating); IP is the inflection point for a given dose-response titration curve
T1 construct: host or cells: PathHunter CHO-K1 cells
T1 sequence (P08235 1-984): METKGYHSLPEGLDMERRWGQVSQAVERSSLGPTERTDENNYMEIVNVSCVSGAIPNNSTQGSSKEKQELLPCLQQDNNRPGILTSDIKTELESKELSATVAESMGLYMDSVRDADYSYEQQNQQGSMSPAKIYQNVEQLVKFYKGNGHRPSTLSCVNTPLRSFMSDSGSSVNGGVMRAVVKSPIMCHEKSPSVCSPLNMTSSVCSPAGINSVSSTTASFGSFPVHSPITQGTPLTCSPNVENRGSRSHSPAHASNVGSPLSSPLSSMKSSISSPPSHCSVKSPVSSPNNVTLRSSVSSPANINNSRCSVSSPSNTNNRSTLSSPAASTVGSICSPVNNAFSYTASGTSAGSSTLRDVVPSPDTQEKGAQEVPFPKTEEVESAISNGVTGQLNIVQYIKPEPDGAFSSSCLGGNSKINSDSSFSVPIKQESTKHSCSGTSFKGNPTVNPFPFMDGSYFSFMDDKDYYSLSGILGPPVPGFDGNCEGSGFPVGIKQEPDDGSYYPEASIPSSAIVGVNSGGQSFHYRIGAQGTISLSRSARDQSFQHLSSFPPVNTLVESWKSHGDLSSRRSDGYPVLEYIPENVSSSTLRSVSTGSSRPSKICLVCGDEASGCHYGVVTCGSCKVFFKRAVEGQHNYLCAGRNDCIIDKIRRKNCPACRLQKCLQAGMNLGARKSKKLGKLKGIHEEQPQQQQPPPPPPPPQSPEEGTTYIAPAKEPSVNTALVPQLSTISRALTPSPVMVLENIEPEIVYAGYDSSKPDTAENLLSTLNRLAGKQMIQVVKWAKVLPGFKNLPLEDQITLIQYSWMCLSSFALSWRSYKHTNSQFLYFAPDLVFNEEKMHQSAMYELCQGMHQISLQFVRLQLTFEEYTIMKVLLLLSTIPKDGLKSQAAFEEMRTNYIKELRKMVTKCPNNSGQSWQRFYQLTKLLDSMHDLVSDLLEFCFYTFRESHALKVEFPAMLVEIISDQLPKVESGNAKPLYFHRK
Excerpt: The activity of the compounds of the present invention regarding mineralocorticoid receptor antagonism can be evaluated using the following assay.
Assessment of MR Potency in HMR NH Pro Assay
The human MR NH Pro assay is a commercially available PathHunter™ Protein:Protein interaction assay (DiscoveRx; http://www.discoverx.com/nhrs/prod-nhrs.php) that measures the ability of compounds to antagonize full-length human Mineralocorticoid Receptor (MR) binding to a coactivator peptide. PathHunter™ CHO-K1 cells that overexpress human MR (Cat #93-0456C2, Lot No: 09B0913) were cultured in growth media (F12K w/Glutamine and phenol red (Gibco 11765-047) supplemented with 10% HI FBS (Gibco 16000); 0.25 mg/ml Hygromycin in PBS (Invitrogen 10687-010, 50 mg/ml); 100 I.U./mL and 100 μg/mL Pen/Strep (Gibco 15140-122); 0.6 mg/mL Geneticin (Gibco 10131-027).
Compounds were assessed for MR antagonist activity by incubating the cells with a titrating dose of compound in F12K w/Glutamine and phenol red culture media (Invitrogen 11765-047) supplemented with 1% Charcoal/Dextran Treated FBS (Hyclone #SH30068.01) and aldosterone (0.3 nM to about 1 nM) for 6 hours at 37° C. Cells were then treated with DiscoveRx detection reagent for 1 hour at room temperature and read using an Envision luminescence plate reader. % activity was measured relative to cells treated with aldosterone alone and IC50 values were calculated using ADA software.
Stock solution was prepared at 10 μM in DMSO and stored at −20° C. for assay, dilute in assay media to 1.8 or 6 nM (6× of final concentration=about 0.3 nM to about 1.0 nM)
5. Cell line: PathHunter CHO-K1 MR cells Cat #93-0456C2, Lot No: 09B0913, from operation liquid nitrogen stock.
3. The cells concentration was adjusted to 4×10^5 cells/mL.
4. Cells were (25 μL/well) added to the wells of a 384 well plate.
5. The plate was then incubated at 37° C. over night in a humidified incubator with 5% CO2.
6. Test compounds were titrated starting at 4.4 mM, 10-point titration in 1:3 dilution.
7. Aldosterone was diluted in assay media to 1.8 nM or 6 nM from 10 μM stock (final concentration to be about 0.3 nM to about 1.0 nM)
1. 10K exponentially growing cells/well (25 μL) were resuspended in assay media and plated into each well using the Multidrop (Thermo Electron) (use white wall, clear bottom assay plates (Costar #3570) and incubated overnight at 37° C., 5% CO2.
2. 0.25 μL 120× test compound (final DMSO concentration should be <1%) was added to each well n=2, 10 point titrations starting at 36.7 μM final concentration.
3. 5 μL of 6× agonist (final aldosterone concentration should be about 0.3 nM to about 1.0 nM) was added to all wells (using the PlateMate Plus; (ThermoFisher) (except those wells in columns 23 and 24)
4. 5 μL of assay media was added to all wells in column 23 and 24.
5. Cells were then incubated for 6 hrs at 37° C., 5% CO2.
6. 15 μL 3× DiscoveRx detection reagent was then added to each well.
7. Plates were incubated for 1 hour at room temperature in the dark.
8. Plates were read on Envision (PerkinElmer) luminesence plate reader and analyzed using ADA.

IC50, 100 to 500 nM:
CCC(CC)(c1ccc(Cl)cc1)c1nn(CC(=O)OC)c2ccccc12 [Example 19, methyl {3-[1-(4-chlorophenyl)-1-ethylpropyl]-1H-indazol-1-yl}acetate]

IC50, 500 to 6000 nM:
CCC(O)(CC)CCC(c1ccc(Cl)cc1F)c1n[nH]c2c(NS(C)(=O)=O)cccc12 (stereo not shown) [Example 11, N-{3-[1-(4-chloro-2-fluorophenyl)-4-hydroxy-4-ethylhexyl]-1H-indazol-7-yl}methanesulfonamide]
N#CCCC(c1ccc(Cl)cc1F)c1n[nH]c2ccccc12 (stereo not shown) [Example 12, 4-(4-chloro-2-fluorophenyl)-4-(1H-indazol-3-yl)butanenitrile]
Cn1nc(C(CCC#N)c2ccc(Cl)cc2F)c2ccccc21 (stereo not shown) [Example 13, 4-(4-chloro-2-fluorophenyl)-4-(1-methyl-1H-indazol-3-yl)butanenitrile]
CCn1nc(C(CCC#N)c2ccc(Cl)cc2F)c2ccccc21 (stereo not shown) [Example 14, 4-(4-chloro-2-fluorophenyl)-4-(1-ethyl-1H-indazol-3-yl)butanenitrile]
CCCn1nc(C(CCC#N)c2ccc(Cl)cc2F)c2ccccc21 (stereo not shown) [Example 15, 4-(4-chloro-2-fluorophenyl)-4-(1-propyl-1H-indazol-3-yl)butanenitrile]
N#CCCC(c1ccc(Cl)cc1F)c1nn(Cc2ccccc2)c2ccccc12 (stereo not shown) [Example 16, 4-(1-benzyl-1H-indazol-3-yl)-4-(4-chloro-2-fluorophenyl)butanenitrile]
COC(=O)Cn1nc(C(CCC#N)c2ccc(Cl)cc2F)c2ccccc21 (stereo not shown) [Example 17A, methyl {3-[1-(4-chloro-2-fluorophenyl)-3-cyanopropyl]-1H-indazol-1-yl}acetate]
CC(C)(C)OC(=O)Cn1nc(C(CCC#N)c2ccc(Cl)cc2F)c2ccccc21 (stereo not shown) [Example 17B, tert-Butyl {3-[1-(4-chloro-2-fluorophenyl)-3-cyanopropyl]-1H-indazol-1-yl}acetate]
COC(=O)CCn1nc(C(CCC#N)c2ccc(Cl)cc2F)c2ccccc21 (stereo not shown) [Example 17C, Methyl 3-{3-[1-(4-chloro-2-fluorophenyl)-3-cyanopropyl]-1H-indazol-1-yl}propanoate]
CSCn1nc(C(CCC#N)c2ccc(Cl)cc2F)c2ccccc21 (stereo not shown) [Example 17D, 4-(4-chloro-2-fluorophenyl)-4-{1-[(methyl-sulfanyl)-methyl]-1H-indazol-3-yl}-butanenitrile]
N#CCCC(c1ccc(Cl)cc1F)c1nn(CC#N)c2ccccc12 (stereo not shown) [Example 17E, 4-(4-chloro-2-fluorophenyl)-4-[1-(cyano-methyl)-1H-indazol-3-yl]-butanenitrile]
COCCn1nc(C(CCC#N)c2ccc(Cl)cc2F)c2ccccc21 (stereo not shown) [Example 17F, 4-(4-chloro-2-fluorophenyl)-4-[1-(2-methoxyethyl)-1H-indazol-3-yl]butanenitrile]
CC(C)(C)OC(=O)Cn1nc(C(C)(C)c2ccc(Cl)cc2)c2ccccc21 [Example 18, tert-butyl {3-[1-(4-chlorophenyl)-1-methylethyl]-1H-indazol-1-yl}acetate]
COC(=O)Cn1nc(Cc2ccc(Cl)cc2)c2ccccc21 [Example 20, Methyl [3-(4-chlorobenzyl)-1H-indazol-1yl]acetate]
Clc1ccc(Cc2nn(Cc3ccccc3)c3ccccc23)cc1 [Example 21, 3-(4-chlorobenzyl)-1-benzyl-1H-indazole]
